Measurements as given in US8598085B2, “2-(2-fluoro-substituted phenyl)-6-amino-5-chloro-4-pyrimidinecarboxylates and their use as herbicides” (Dow AgroSciences LLC, priority 2007, dated 2013).

Experiments:
[1] = test system: CIRAR—Canada thistle (Cirsium arvense); assay: General postemergence herbicidal activity, Canada thistle; type: in vivo; conditions: post-emergence, 336 h, post-emergent, rate 140 g ai/ha, visual score after 14 days (0 no injury, 100 complete kill), read-out: % Growth Reduction CIRAR
Experimental: (§1) Seeds or nutlets of the desired test plant species were planted in Sun Gro MetroMix® 306 planting mixture, which typically has a pH of 6.0 to 6.8 and an organic matter content of about 30 percent, in plastic pots with a surface area of 64 square centimeters. When required to ensure good germination and healthy plants, a fungicide treatment and/or other chemical or physical treatment was applied. The plants were grown for 7-21 days in a greenhouse with an approximate 15 hour photoperiod which was maintained at about 23-29° C. during the day and 22-28° C. during the night. Nutrients and water were added on a regular basis and supplemental lighting was provided with overhead metal halide 1000-Watt lamps as necessary. The plants were employed for testing when they reached the first or second true leaf stage.
(§2) A weighed amount, determined by the highest rate to be tested, of each test compound was placed in a 25 mL glass vial and was dissolved in 4 mL of a 97:3 v/v (volume/volume) mixture of acetone and dimethyl sulfoxide (DMSO) to obtain concentrated stock solutions. […] The concentrated stock solutions obtained were diluted with 20 mL of an aqueous mixture containing acetone, water, isopropyl alcohol, DMSO, Atplus 411F crop oil concentrate, and Triton X-155 surfactant in a 48.5:39:10:1.5:1.0:0.02 v/v ratio to obtain spray solutions containing the highest application rates. Additional application rates were obtained by serial dilution of 12 mL of the high rate solution into a solution containing 2 mL of 97:3 v/v (volume/volume) mixture of acetone and DMSO and 10 mL of an aqueous mixture containing acetone, water, isopropyl alcohol, DMSO, Atplus 411F crop oil concentrate, and Triton X-155 surfactant in a 48.5:39:10:1.5:1.0:0.02 v/v ratio to obtain ½X, ¼X, ⅛X and 1/16X rates of the high rate. Compound requirements are based upon a 12 mL application volume at a rate of 187 L/ha. Formulated compounds were applied to the plant material with an overhead Mandel track sprayer equipped with 8002E nozzles calibrated to deliver 187 L/ha over an application area of 0.503 square meters at a spray height of 18 inches […] above the average plant canopy height. Control plants were sprayed in the same manner with the solvent blank.
(§3) The treated plants and control plants were placed in a greenhouse as described above and watered by sub-irrigation to prevent wash-off of the test compounds. After 14 days, the condition of the test plants as compared with that of the untreated plants was determined visually and scored on a scale of 0 to 100 percent where 0 corresponds to no injury and 100 corresponds to complete kill.

[2] = test system: ABUTH—Velvetleaf (Abutilon theophrasti); assay: General postemergence herbicidal activity, velvetleaf; type: in vivo; conditions: post-emergence, 336 h, post-emergent, rate 140 g ai/ha, visual score after 14 days (0 no injury, 100 complete kill), read-out: % Growth Reduction ABUTH
Experimental: as §1, §2, §3

[3] = test system: POLCO—Wild buckwheat (Polygonum convolvulus); assay: General postemergence herbicidal activity, wild buckwheat; type: in vivo; conditions: Fallopia convolvulus, post-emergence, 336 h; post-emergent, rate 140 g ai/ha, visual score after 14 days (0 no injury, 100 complete kill); read-out: % Growth Reduction POLCO
Experimental: as §1, §2, §3

[4] = test system: ECHCG—Barnyardgrass (Echinochloa crus-galli); assay: General postemergence herbicidal activity, barnyardgrass; type: in vivo; conditions: post-emergence, 336 h, post-emergent, rate 140 g ai/ha, visual score after 14 days (0 no injury, 100 complete kill), read-out: % Growth Reduction ECHCG
Experimental: as §1, §2, §3

[5] = test system: SORVU—Common sorghum (Sorghum vulgare); assay: General preemergence herbicidal activity, common sorghum; type: in vivo; conditions: pre-emergent, rate 140 g ai/ha, visual score after 20-22 days (0 no injury, 100 complete kill or no emergence), read-out: % Growth Inhibition SORVU
Source text: (§4) Seeds of the desired test plant species were planted in a soil matrix prepared by mixing a loam soil (43 percent silt, 19 percent clay, and 38 percent sand, with a pH of about 8.1 and an organic matter content of about 1.5 percent) and sand in a 70 to 30 ratio. The soil matrix was contained in plastic pots with a surface area of 113 square centimeters. When required to ensure good germination and healthy plants, a fungicide treatment and/or other chemical or physical treatment was applied. A weighed amount, determined by the highest rate to be tested, of each test compound was placed in a 25 mL glass vial and was dissolved in 6 mL of a 97:3 v/v (volume/volume) mixture of acetone and DMSO to obtain concentrated stock solutions. […] The stock solutions obtained were diluted with 18 mL of a 0.1% v/v aqueous solution of Tween® 20 surfactant to obtain spray solutions containing the highest application rate. Additional application rates were obtained by serial dilution of 12 mL of the high rate solution into a solution containing 3 mL of 97:3 v/v mixture of acetone and DMSO and 9 mL of the 0.1% v/v aqueous solution of Tween® 20 surfactant to obtain 1⁄2X, 1⁄4X, 1⁄8X and 1/16X rates of the high rate. Compound requirements are based upon a 12 mL application volume at a rate of 187 L/ha. Formulated compounds were applied to the plant material with an overhead Mandel track sprayer equipped with […] nozzles calibrated to deliver 187 L/ha over an application area of 0.503 square meters at a spray height of 18 inches (43 cm) above the soil surface. Control plants were sprayed in the same manner with the solvent blank. The treated pots and control pots were placed in a greenhouse maintained with an approximate 15 hour photoperiod and temperatures of about 23-29° C. during the day and 22-28° C. during the night. Nutrients and water were added on a regular basis and supplemental lighting was provided with overhead metal halide 1000-Watt lamps as necessary. The water was added by top-irrigation. After 20-22 days, the condition of the test plants that germinated and grew as compared with that of the untreated plants that emerged and grew was determined visually and scored on a scale of 0 to 100 percent where 0 corresponds to no injury and 100 corresponds to complete kill or no emergence.

ZEAMX—Corn (Zea mays) = assay: General preemergence herbicidal activity, corn; type: in vivo; conditions: pre-emergent, rate 140 g ai/ha, visual score after 20-22 days (0 no injury, 100 complete kill or no emergence), read-out: % Growth Inhibition ZEAMX
Source text: as §4

[6] = test system: CHEAL—Common lambsquarters (Chenopodium album); assay: General preemergence herbicidal activity, common lambsquarters; type: in vivo; conditions: pre-emergent, rate 140 g ai/ha, visual score after 20-22 days (0 no injury, 100 complete kill or no emergence), read-out: % Growth Inhibition CHEAL
Source text: as §4

[7] = test system: ABUTH—Velvetleaf (Abutilon theophrasti); assay: General preemergence herbicidal activity, velvetleaf; type: in vivo; conditions: pre-emergent, rate 140 g ai/ha, visual score after 20-22 days (0 no injury, 100 complete kill or no emergence), read-out: % Growth Inhibition ABUTH
Source text: as §4

[8] = test system: HELAN—Common sunflower (Helianthus annuus); assay: General preemergence herbicidal activity, common sunflower; type: in vivo; conditions: pre-emergent, rate 140 g ai/ha, visual score after 20-22 days (0 no injury, 100 complete kill or no emergence), read-out: % Growth Inhibition HELAN
Source text: as §4

melting point | SMILES | pest or weed control at 140 g/ha [1] | pest or weed control at 140 g/ha [2] | pest or weed control at 140 g/ha [3] | pest or weed control at 140 g/ha [4] | inhibition at 140 g/ha [5] | inhibition at 140 g/ha (ZEAMX—Corn (Zea mays)) | inhibition at 140 g/ha [6] | inhibition at 140 g/ha [7] | inhibition at 140 g/ha [8]
– | COC(=O)c1nc(-c2cc(F)c(Cl)cc2F)nc(N)c1Cl [Compound 20, 6-Amino-5-chloro-2-(4-chloro-2,5-difluorophenyl)-pyrimidine-4-carboxylic acid methyl ester] | 95% | 99% | 100% | 95% | – | – | – | – | –
– | COC(=O)c1nc(-c2ccc(C(F)F)cc2F)nc(N)c1Cl [Compound 9, 6-Amino-5-chloro-2-(4-difluoromethyl-2-fluorophenyl)pyrimidine-4-carboxylic acid methyl ester] | 40% | 45% | 35% | 0% | – | – | – | – | –
187 to 189 °C | COC(=O)c1nc(-c2ccc(Cl)c(F)c2F)nc(N)c1Cl [Compound 2, 6-Amino-5-chloro-2-(4-chloro-2,3-difluorophenyl)pyrimidine-4-carboxylic acid methyl ester] | 100% | 100% | 100% | 95% | – | – | – | – | –
– | COC(=O)c1nc(-c2cc(F)c(C)cc2F)nc(N)c1Cl [Compound 8, 6-Amino-5-chloro-2-(2,5-difluoro-4-methylphenyl)pyrimidine-4-carboxylic acid methyl ester] | 45% | 95% | 60% | 0% | – | – | – | – | –
194 to 196 °C | COC(=O)c1nc(-c2ccc(Cl)cc2F)nc(N)c1Cl [Compound 1, 6-Amino-5-chloro-2-(4-chloro-2-fluorophenyl)pyrimidine-4-carboxylic acid methyl ester] | 100% | 100% | 95% | 90% | – | – | – | – | –
– | COC(=O)c1nc(-c2cc(Cl)c(Cl)cc2F)nc(N)c1Cl [Compound 10, 6-Amino-5-chloro-2-(4,5-dichloro-2-fluorophenyl)pyrimidine-4-carboxylic acid methyl ester] | 95% | 90% | 100% | – | – | – | – | – | –
– | COC(=O)c1nc(-c2ccc(C(F)(F)F)c(F)c2F)nc(N)c1Cl [Compound 6, 6-Amino-5-chloro-2-(2,3-difluoro-4-trifluoromethylphenyl)pyrimidine-4-carboxylic acid methyl ester] | 80% | 90% | 95% | 25% | – | – | – | – | –
– | Cc1ccc(-c2nc(N)c(Cl)c(C(=O)O)n2)c(F)c1 [Compound 13, 6-Amino-5-chloro-2-(2-fluoro-4-methylphenyl)pyrimidine-4-carboxylic acid] | – | – | – | – | 50% | 10% | 95% | 95% | –
– | COC(=O)c1nc(-c2ccc(C(F)(F)F)cc2F)nc(N)c1Cl [Compound 5, 6-Amino-5-chloro-2-(2-fluoro-4-trifluoromethylphenyl)pyrimidine-4-carboxylic acid methyl ester] | 85% | 70% | 80% | 0% | – | – | – | – | –
– | Nc1nc(-c2ccc(C(F)(F)F)cc2F)nc(C(=O)O)c1Cl [Compound 15, 6-Amino-5-chloro-2-(2-fluoro-4-trifluoromethylphenyl)pyrimidine-4-carboxylic acid] | 80% | 40% | 65% | 50% | 0% | 65% | 60% | 10% | 10%
– | COC(=O)c1nc(-c2ccc(C)c(F)c2F)nc(N)c1Cl [Compound 4, 6-Amino-5-chloro-2-(2,3-difluoro-4-methylphenyl)pyrimidine-4-carboxylic acid methyl ester] | 60% | 99% | 80% | 90% | – | – | – | – | –
– | Cc1cc(F)c(-c2nc(N)c(Cl)c(C(=O)O)n2)cc1F [Compound 18, 6-Amino-5-chloro-2-(2,5-difluoro-4-methylphenyl)pyrimidine-4-carboxylic acid] | 100% | 100% | 40% | 75% | – | – | – | – | –
131 to 132 °C | CCOC(=O)c1nc(-c2ccc(Cl)cc2F)nc(N)c1Cl [Compound 19, 6-Amino-5-chloro-2-(4-chloro-2-fluorophenyl)pyrimidine-4-carboxylic acid ethyl ester] | 95% | 99% | 100% | 80% | – | – | – | – | –
– | Nc1nc(-c2cc(Cl)c(Cl)cc2F)nc(C(=O)O)c1Cl [Compound 17, 6-Amino-5-chloro-2-(4,5-dichloro-2-fluorophenyl)pyrimidine-4-carboxylic acid] | 90% | 85% | 95% | – | – | – | – | – | –
